Tests used:
Assay in all cases: cells
Conditions in all cases: Homo sapiens
RPMI-8226 = system: RPMI-8226
SW-620 = system: SW-620
IGROV1 = system: IGROV1
OVCAR-5 = system: OVCAR-5

For CCCn1cc(C=NN=C2C(=O)Nc3ccc(C)cc32)c2ccccc21 [Compound 8a], the GI50 (RPMI-8226; RPMI-8226) was 1330 nM, the CC50 (RPMI-8226; RPMI-8226, read-out: LC50) was greater than 100 µM and the GI50 (SW-620; SW-620) was 2970 nM. For the same molecule, the CC50 (SW-620; SW-620, read-out: LC50) was greater than 100 µM, the GI50 (IGROV1; IGROV-1) was 3.38 µM and the CC50 (IGROV1; IGROV-1, read-out: LC50) was greater than 100 µM. For the same molecule, the GI50 (OVCAR-5; OVCAR-5) was 4.04 µM and the CC50 (OVCAR-5; OVCAR-5, read-out: LC50) was greater than 100 µM.

Source: PMC7717600, “Novel [(N-alkyl-3-indolylmethylene)hydrazono]oxindoles arrest cell cycle and induce cell apoptosis by inhibiting CDK2 and Bcl-2: synthesis, biological evaluation and in silico studies” (Journal of Enzyme Inhibition and Medicinal Chemistry, 2020)
